Assay results published in US20230101743A1, “SUBSTITUTED TRIAZINE COMPOUNDS AND USES THEREOF” (MUSC FOUNDATION FOR RESEARCH DEVELOPMENT, priority 2020, published 2023).

What was measured:
[1] = Solubilities in water and 1 x PBS buffer (UV-vis); type: physicochemical; settings: for Solubility in 1.0 ml PBS buffer: 1 × PBS buffer; for Solubility in 1.0 ml PBS buffer / Solubility in 1.0 ml water: 25° C.; for solubility comparison: both water or 1 x PBS buffer
Method: The molar extinction co-efficients of exemplary cholesterol lowering compounds were measured in 1 x PBS buffer. The compounds were first dissolved in dimethyl sulfoxide. Solutions with a 0.5 mg/ml concentration were then prepared in DMSO. These solutions were diluted further with 1 x PBS by 100-fold, resulting in solutions with a 5 ug/ml concentration. The resulted diluted solutions were then measured and scanned using a UV-vis spectrophotometer for ultra-violet absorbances between 240 nm to 400 nm, using a UV 96-well microplate. The maximum UV absorbances and corresponding wavelengths were recorded (Table 1). The absorbance values were subtracted by that of a blank, 1 x PBS buffer containing […]. The volume of the solutions for UV measurements was 300 ul and the depth of the solutions was 0.7 cm. The molar extinction co-efficients were then calculated based on formula
The solubilities of the exemplary cholesterol lowering compounds were measured in water and 1 x PBS buffer. The compounds were first stirred with water and 1 x PBS buffer individually at room temperature for 1 h. The suspensions were then centrifuged for 2 min. The top clear solutions were filtered through filter paper, resulting in mother liquids, which were centrifuged again and diluted with 1 x PBS buffer for 10-fold for the solubilities in water and 100-fold the solubilities in 1 x PBS buffer. The resulted solutions were measured using a UV-vis spectrophotometer for UV absorbances with the maximum absorbances. The values were subtracted by that of a blank, 1 x PBS buffer. The corrected absorbances were then used to calculate the corresponding concentrations using the formula (1) and extinction coefficients (Table 1) shown above. The individual concentrations were then used to calculate the solubilities in 1.0 mL of water and 1 x PBS buffer.
The compounds were dissolved in DMSO to either 50 mg/ml, 10 mg/ml or 5 mg/ml solutions, which were diluted to 0.5 mg/ml with DMSO. These solutions were then diluted to 5 ug/ml with 1 x PBS buffer. The resulted solutions were then measured in a UV-vis spectrophotometer for UV scanning from 240 nm to 400 nm at 25° C. The absorbance values were subtracted by that of a blank, 1 x PBS buffer containing DMSO. The total volume of the solutions was 300 uL and the path length for each well was 0.7 cm in a UV 96-well plate. The extinction coefficients of the compounds were then calculated based on molar concentrations and the corrected UV absorbances at the maximum absorption (Table 1).
The mixtures wer stirred for 1 h at room temperature, transferred to 1.5 mL Eppendorf tubes, and centrifuged for 2 min. The clear solutions were filtered through filter papers, affording clear solutions, which were centrifuged again for 2 min. The top clear solutions were diluted by 1 x PBS buffer by 10-fold for the solubilities in water and 100-fold for the solubilities in 1 x PBS buffer. The new clear solutions were then measured individually using a UV-vis spectrophotometer and a UV 96-well microplate. The absorbance values were subtracted by that of a blank, 1 x PBS buffer. Concentrations and solubilities of the compounds were then calculated using their extinct coefficients and the corrected UV absorbances at the maximum absorptions (Table 1).

[2] = system: intracellular APOB, LAMP1, and SORTILIN; experiment: Confocal immunofluorescence of intracellular APOB, LAMP1 and SORTILIN; type: cell-based, human; settings: 48 μg/mL, 24 hours
Method: Human iPSC-derived hepatocytes (iPSC-Heps) were treated with 48 μg/mL of DL-9 for 24 hours. Immunofluorescence of intracellular APOB, LAMP1, and SORTILIN was detected by specific antibodies. […] Extracellular APOB was measured by ELISA analysis. APOB level was normalized to DMSO treated group (FIG. 13C). In FIG. 13D intracellular APOB was determined via western blot using a specific anti-APOB antibody. […] Data are shown as mean±SD of triplicates (n=3). Statistical analysis was performed using the student t-test.
For hepatic marker expression analysis, human iPSC-derived hepatocytes (Day 20) were treated with 2 μg/mL of DL-1 for 24 hours. Cells were fixed in 4% paraformaldehyde (PFA) and penetrated with 0.1% Triton-X-100. Cells were incubated with primary antibodies (ALB, 1:1000, Dako; HNF4-a, 1:1000, Santa Cruz) overnight at 4 degrees and then switched to secondary antibodies (Alexa Flour 488 goat anti-rabbit, 1:1000, Invitrogen; Alexa Flour 594 rabbit anti-mouse, 1:2000, Invitrogen). Images were taken using Bio-Rad Zoe™ Fluorescent Cell Imager (Bio-Rad). For intracellular APOB localization, iPSC-heps were treated with 0, 3, 12, 48 μg/mL of DL-9 for 24 hours, and cells were fixed in 4% PFA followed by 0.1% Triton-X-100 penetration. […] Integrated fluorescent intensity was normalized by total cell counts, which is determined by DAPI staining.

Hepatic neutral lipid = experiment: Neutral lipid staining (BODIPY 493/503) in iPSC-derived hepatocytes; type: cell-based, human; settings: 72 hours; DL-1 2 μg/mL, CP-346086 20 nM
Method: H. Human iPSC derived hepatocytes were treated with DL-1 (2 μg/mL) and MTTP inhibitor CP-346086 (20 nM) for 72 hours. […] (A) Hepatic neutral lipid was determined by staining with 2 μM of BODIPYTM 493/503 for 15 mins and fixed with 4% PFA for microscopy. Nuclei were stained blue by DAPI. Scale bar=100 μm. […] Data are shown as mean±SEM of ten replicates (n=10); ***p<0.001.
K3 iPSC-derived hepatocytes (Day 20) were treated with or without 2 μg/mL of DL-1 or 20 nM of CP-346086 (Sigma) for 72 hours with daily medium change. At the time-point of interest, cells were treated with 2 μM of BODIPY® 493/503 staining solution (ThermoFisher) and 5 μg/mL of Hoechst 33342 (ThermoFisher) in PBS at 37 degrees for 15 minutes. Cells were washed with sterile PBS three times and then fixed with 4% PFA. Fluorescence images were taken using Bio-rad Zoeυ Fluorescent Cell Imager (Bio-Rad) and KEYENCE BZ-X800E Fluorescence Microscope (KEYENCE). Integrated fluorescent intensity was normalized by total cell counts, which is determined by DAPI staining.

| Solubility in 1.0 ml PBS buffer [1] [µg] | Solubility in 1.0 ml water ([1]; water) [µg] | solubility comparison [1] | solubility relative to that of DL-9 in 1 x PBS buffer ([1]; 1 x PBS buffer) [fold] | solubility relative to that of DL-9 in water ([1]; water) | Compound | colocalization of APOB and SORTILIN [2] | hepatic lipid accumulation (neutral lipid level) (Hepatic neutral lipid) |
| --- | --- | --- | --- | --- | --- | --- | --- |
| 61 | 0.27 | – | – | – | Sc1nc(S)nc(Nc2cc(Cl)cc(Cl)c2)n1 (racemic) [DL-5, 6-[(3,5-dichlorophenyl)amino]-1,3,5-triazine-2,4-dithiol] | – | – |
| 459 | 1.35 | better solubilities than that for DL-9 | – | – | CC(C)(C)c1cc(C(C)(C)C)c(Nc2nc(S)nc(S)n2)cc1O (racemic) [DL-30, 6-(2,4-di-tert-butyl-5-hydroxyphenylamino)-1,3,5-triazine-2,4-dithiol] | – | – |
| 257 | 1.78 | better solubilities than that for DL-9 | – | – | CC(C)(C)c1cc(Nc2nc(S)nc(S)n2)cc(C(C)(C)C)c1OCCO (racemic) [DL-27, 6-(3,5-di-tert-butyl-4-(2-hydroxyethoxy)-phenylamino)-1,3,5-triazine-2,4-dithiol] | – | – |
| 477 | 1.63 | better solubilities than that for DL-9 | ~5 | about 4 fold | CC(C)(C)c1cc(Nc2nc(S)nc(S)n2)c(O)c(C(C)(C)C)c1 (racemic) [DL-31, 6-(3,5-di-tert-butyl-2-hydroxyphenylamino)-1,3,5-triazine-2,4-dithiol] | – | – |
| 348 | 1.25 | better solubilities than that for DL-9 | – | – | Oc1c(Cl)cc(Nc2nc(S)nc(S)n2)cc1Cl (racemic) [DL-28, 6-(3,5-dichloro-4-hydroxyphenylamino)-1,3,5-triazine-2,4-dithiol] | – | – |

Further lines, the compound ahead of its results:

| Compound | Solubility in 1.0 ml PBS buffer [1] [µg] | Solubility in 1.0 ml water ([1]; water) [µg] | solubility comparison [1] | solubility relative to that of DL-9 in 1 x PBS buffer ([1]; 1 x PBS buffer) [fold] | solubility relative to that of DL-9 in water ([1]; water) | colocalization of APOB and SORTILIN [2] | hepatic lipid accumulation (neutral lipid level) (Hepatic neutral lipid) |
| --- | --- | --- | --- | --- | --- | --- | --- |
| CC(C)(C)c1cc(Nc2nc(S)nc(S)n2)cc(C(C)(C)C)c1O [DL-9, {4-[(3,5-di-tert-butyl-4-hydroxyphenyl)amino]-6-sulfanidyl-1,3,5-triazin-2-yl}sulfanide] | 91 | 0.40 | best solubility among the first three compounds | – | – | colocalization of APOB and SORTILIN | – |
| COc1cc(Nc2nc(S)nc(S)n2)cc(OC)c1O (racemic) [DL-32] | 786 | 2.01 | better solubilities than that for DL-9 | – | – | – | – |
| C#CCOCCOCCOCCOCCOc1c(C(C)(C)C)cc(Nc2nc(S)nc(S)n2)cc1C(C)(C)C [DL-33, 6-(3,5-di-tert-butyl-4-(2-(2-(2-(2-(2-propyn-1-yloxy)ethoxy)ethyoxy)etoxy)ethoxy)-phenylamino)-1,3,5-triazine-2,4-dithiol] | 186 | 1.18 | better solubilities than that for DL-9 | – | – | – | – |
| O=C(Nc1ccc2c(c1)CCN(Cc1ncn[nH]1)C2)c1ccccc1-c1ccc(C(F)(F)F)cc1 [CP-346086, reference compound] | – | – | – | – | – | – | significant increase of neutral lipid level |
| Cc1cc(Nc2nc(S)nc(S)n2)cc(C)c1O (racemic) [DL-29, 6-(3,5-dimethyl-4-hydroxyphenylamino)-1,3,5-triazine-2,4-dithiol] | 686 | 2.22 | better solubilities than that for DL-9 | – | – | – | – |
